≈ marks a conversion by molar mass, not a printed value. Where two headings read alike, the source gives them in different places.
Tests used:
[1] = system: N. seriolae strain JCM3360; test: anti-Nocardia activity, microplate alamar blue assay (MABA); format: cell-based; conditions: two days at 25 °C; for MIC: 48 h
Experimental: (§1) The MABA method was used to determine the anti-Nocardia activity of compounds according to reported method[34] with modification. N. seriolae strain JCM3360, and N. salmonicida strain JCM4826 were gifted from Prof. Nien, Chung-Yi (National Central University, Taoyuan City, Taiwan), and cultured in M-196 medium (0.4% yeast extract; 1% malt extract; 0.4% dextrose) at 25 °C. Two strains were inoculated into 96-well plates at a concentration of ×10^6 CFU/mL and cultured in the medium, then different concentrations of compounds were added. After two days of incubation at 25 °C, the mixture of 20 μL 10× alamar blue and 50 μL 5% Tween-80 were added to observe the colour change. Minimum inhibitory concentration (MIC) is defined as the minimum compound concentration of the well varying from blue to pink.

[2] = system: N. salmonicida strain JCM4826; test: as above; format: cell-based; conditions: two days at 25 °C; for MIC: 48 h
Experimental: as §1

NsdUTPase = NsdUTPase (Nocardia seriolae, UniProt A0ABF7PKI9); test: NsdUTPase activity assay (PPi Light inorganic pyrophosphate assay kit); format: biochemical; conditions: for activity improvement: NsdUTPase IC50 compared with F0414
Experimental: The in vitro catalytic activity of NsdUTPase was detected by a PPi Light inorganic pyrophosphate assay kit following manufactory’s manual. […] After 120 min of incubation at room temperature, the luminescence intensity of the reaction was measured by a microplate luminometer at 560 nm.
IC50 was determined using GraphPad Prism software 9 (GraphPad Software, San Diego, CA). All experiments were performed in triplicate, and values (±standard deviations [SD]) are shown. Significant differences were determined using Student’s t-test. *p < 0.05 (considered significant compared with control group); **p < 0.01 (considered highly significant); ***p < 0.001 (considered extremely significant).

[3] = Cytotoxicity, CCK-8 assay; format: cell-based; conditions: concentration 30 µM (about 10.0 mg/L), read-out: cell viability
Experimental: The cytotoxicity of compounds 4b and 12b was determined by CCK-8 assay. A549 and Marc cells were cultured for the test. Concentrations of compounds varied from 0.03 to 30 µM. Meanwhile, 1% DMSO was used as a negative control. After incubation for 24 h, WST-8 was added. The experimental method referred to the kit instructions. All the experiments were repeated three times.

NsdUTPase WT = target: T1, NsdUTPase WT (Nocardia seriolae, UniProt A0ABF7PKI9); test: Kd to WT NsdUTPase; format: binding, N. seriolae
T1 sequence (A0ABF7PKI9 1-166): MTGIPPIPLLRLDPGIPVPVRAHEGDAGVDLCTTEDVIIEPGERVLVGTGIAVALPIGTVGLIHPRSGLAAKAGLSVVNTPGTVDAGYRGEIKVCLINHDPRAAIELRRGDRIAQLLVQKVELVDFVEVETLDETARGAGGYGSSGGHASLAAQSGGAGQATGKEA

[4] = in vitro enzyme inhibitory activity, read-out: IC50 against NsdUTPase
[5] = African green monkey, Marc cells

Molecule | IC50 (NsdUTPase; [4]) | MIC [1] | MIC [2] | further results
1-(Cyclopropylmethyl)-2-(4-phenoxyphenyl)-5-(trifluoromethyl)-1H-benzo[d]imidazole [12f] | > 20 µM | – | – | MIC N. seriolae [1]: 16 µg/mL; MIC N. salmonicida [2]: 8 µg/mL
1-Allyl-6-fluoro-5-methyl-2-(6-phenoxypyridin-3-yl)-1H-benzo[d]imidazole [12i] | 7.84 µM | – | – | MIC N. seriolae [1]: 4 µg/mL; MIC N. salmonicida [2]: 4 µg/mL
C=CCn1c(/C=C/c2ccccc2)nc2cc(C(F)(F)F)ccc21 [4b, (E)-1-Allyl-2-styryl-5-(trifluoromethyl)-1H-benzo[d]imidazole] | – | 1 µg/mL (≈ 3.05 µM) | 0.5 µg/mL (≈ 1.52 µM) | viability at 24 h, 30 µM [3, 5]: > 70%; viability at 24 h, 30 µM ([3]; human, A549 cells): > 70%; IC50 (NsdUTPase): 0.99 µM; activity improvement (NsdUTPase): more than 20 fold; Kd (NsdUTPase WT): 10.3 µM
C=CCn1c(/C=C/c2ccccc2)nc2c(C)cccc21 [4d, (E)-1-Allyl-4-methyl-2-styryl-1H-benzo[d]imidazole] | > 20 µM | 16 µg/mL (≈ 58.3 µM) | 16 µg/mL (≈ 58.3 µM) | –
C=CCn1c(/C=C/c2ccccc2)nc2cc(C#N)ccc21 [4e, (E)-1-Allyl-2-styryl-1H-benzo[d]imidazole-5-carbonitrile] | > 20 µM | > 50 µg/mL | 16 µg/mL (≈ 56.1 µM) | –
C=CCn1c(/C=C/c2ccc(N(C)C)cc2)nc2ccccc21 [4g, (E)-4-(2-(1-Allyl-1H-benzo[d]imidazol-2-yl)vinyl)-N,N-dimethylaniline] | 2.98 µM | > 50 µg/mL | 16 µg/mL (≈ 52.7 µM) | –
C=CCn1c(/C=C/c2ccccc2)nc2cc(C(=O)c3ccccc3)ccc21 [4h, (E)-(1-Allyl-2-styryl-1H-benzo[d]imidazol-5-yl)(phenyl)methanone] | 9.62 µM | 8 µg/mL (≈ 22 µM) | 8 µg/mL (≈ 22 µM) | –
C=CCn1c(/C=C/c2ccccc2OC)nc2cc(C(=O)c3ccccc3)ccc21 [4i, (E)-(1-Allyl-2-(2-methoxystyryl)-1H-benzo[d]imidazol-5-yl)(phenyl)methanone] | 7.54 µM | 8 µg/mL (≈ 20.3 µM) | 4 µg/mL (≈ 10.1 µM) | –
C=CCn1c(-c2ccc(Oc3ccccc3)cc2)nc2ccccc21 [8a, 1-Allyl-2-(4-phenoxyphenyl)-1H-benzo[d]imidazole] | 2.61 µM | 4 µg/mL (≈ 12.3 µM) | 4 µg/mL (≈ 12.3 µM) | –
C=CCn1c(-c2ccc(-c3ccccc3)cc2)nc2ccccc21 [8b, 2-([1,1′-Biphenyl]-4-yl)-1-allyl-1H-benzo[d]imidazole] | – | 4 µg/mL (≈ 12.9 µM) | 4 µg/mL (≈ 12.9 µM) | –
C=CCn1c(/C(C)=C/c2ccccc2)nc2ccccc21 [8c, (E)-1-Allyl-2-(1-phenylprop-1-en-2-yl)-1H-benzo[d]imidazole] | > 20 µM | 8 µg/mL (≈ 29.2 µM) | 4 µg/mL (≈ 14.6 µM) | –
C=CCn1c(-c2cccc(Oc3ccccc3)c2)nc2ccccc21 [8d, 1-Allyl-2-(3-phenoxyphenyl)-1H-benzo[d]imidazole] | 15.7 µM | > 50 µg/mL | 32 µg/mL (≈ 98 µM) | –
C=CCn1c(-c2ccc3ccccc3c2)nc2ccccc21 [8e, 1-Allyl-2-(naphthalen-2-yl)-1H-benzo[d]imidazole] | 10.5 µM | 4 µg/mL (≈ 14.1 µM) | 4 µg/mL (≈ 14.1 µM) | –
C=CCn1c(-c2ccc(Oc3ccccc3)cc2)nc2cc(C(F)(F)F)ccc21 [12a, 1-Allyl-2-(4-phenoxyphenyl)-5-(trifluoromethyl)-1H-benzo[d]imidazole] | 8.36 µM | > 50 µg/mL | 16 µg/mL (≈ 40.6 µM) | –
C=CCn1c(-c2ccc(Oc3ccccc3)cc2)nc2cc(C)ccc21 [12b, 1-Allyl-5-methyl-2-(4-phenoxyphenyl)-1H-benzo[d]imidazole] | – | 2 µg/mL (≈ 5.87 µM) | 1 µg/mL (≈ 2.94 µM) | viability at 24 h, 30 µM [3, 5]: > 70%; viability at 24 h, 30 µM ([3]; human, A549 cells): > 70%; IC50 (NsdUTPase): 0.7 µM; activity improvement (NsdUTPase): more than 20 fold; Kd (NsdUTPase WT): 7.49 µM
C=CCn1c(-c2ccc(Oc3ccccc3)cc2)nc2cc(C(=O)c3ccccc3)ccc21 [12c, (1-Allyl-2-(4-phenoxyphenyl)-1H-benzo[d]imidazol-5-yl)(phenyl)methanone] | 15.4 µM | 16 µg/mL (≈ 37.2 µM) | 8 µg/mL (≈ 18.6 µM) | –
C=CCn1c(-c2ccc(Oc3ccccc3)cc2)nc2cc(C)c(C)cc21 [12d, 1-Allyl-5,6-dimethyl-2-(4-phenoxyphenyl)-1H-benzo[d]imidazole] | 3.71 µM | 8 µg/mL (≈ 22.6 µM) | 4 µg/mL (≈ 11.3 µM) | –
C#CCn1c(-c2ccc(Oc3ccccc3)cc2)nc2cc(C(F)(F)F)ccc21 [12e, 2-(4-Phenoxyphenyl)-1-(prop-2-yn-1-yl)-5-(trifluoromethyl)-1H-benzo[d]imidazole] | 14.8 µM | 32 µg/mL (≈ 81.6 µM) | 16 µg/mL (≈ 40.8 µM) | –
C=CCn1c(-c2ccc(Oc3cccnc3)cc2)nc2cc(C(F)(F)F)ccc21 [12g, 1-Allyl-2-(4-(pyridin-3-yloxy)phenyl)-5-(trifluoromethyl)-1H-benzo[d]imidazole] | > 20 µM | > 50 µg/mL | 32 µg/mL (≈ 80.9 µM) | –
C=CCn1c(-c2ccc(Oc3ccccc3)nc2)nc2cc(C(F)(F)F)ccc21 [12h, 1-Allyl-2-(6-phenoxypyridin-3-yl)-5-(trifluoromethyl)-1H-benzo[d]imidazole] | > 20 µM | > 50 µg/mL | 32 µg/mL (≈ 80.9 µM) | –
C=CCn1c(/C=C/c2ccccc2)nc2ccccc21 [F0414, (E)-1-Allyl-2-styryl-1H-benzo[d]imidazole, reference compound] | > 20 µM | 8 µg/mL (≈ 30.7 µM) | 2 µg/mL (≈ 7.68 µM) | –
CS(=O)(=O)c1ccc([C@@H](O)[C@@H](CF)NC(=O)C(Cl)Cl)cc1 [Florfenicol, reference compound] | – | 4 µg/mL (≈ 11.2 µM) | 16 µg/mL (≈ 44.7 µM) | –
CN(C)[C@@H]1C(O)=C(C(N)=O)C(=O)[C@@]2(O)C(O)=C3C(=O)c4c(O)cccc4[C@@](C)(O)[C@H]3[C@H](O)[C@@H]12 [Oxytetracycline, reference compound] | – | 1 µg/mL (≈ 2.17 µM) | 4 µg/mL (≈ 8.69 µM) | –
COc1cc(NS(=O)(=O)c2ccc(N)cc2)nc(OC)n1 [Sulfadimethoxine, reference compound] | – | > 50 µg/mL | 12.5 µg/mL (≈ 40.3 µM) | MIC N. seriolae [1]: >50 µg/mL
Cc1ccnc(NS(=O)(=O)c2ccc(N)cc2)n1 [Sulfamerazin, reference compound] | – | – | – | MIC N. seriolae [1]: >50 µg/mL; MIC N. seriolae ([1]; listed as sulfamerazin): > 50 µg/mL; MIC N. salmonicida [2]: >50 µg/mL
(E)-1-Allyl-2-styryl-1H-benzo[d]imidazol-5-yl acetate [4f] | 18.3 µM | – | – | MIC N. seriolae [1]: >50 µg/mL; MIC N. salmonicida [2]: 32 µg/mL
(E)-1-Allyl-2-styryl-1H-benzo[d]imidazole [4a] | 2.65 µM | – | – | MIC N. seriolae [1]: 4 µg/mL; MIC N. salmonicida [2]: 2 µg/mL
(E)-1-Allyl-2-styryl-1H-benzo[d]imidazole [4c] | 3.78 µM | – | – | MIC N. seriolae [1]: >50 µg/mL; MIC N. salmonicida [2]: 16 µg/mL
